Experimental data from US9169254B2, “Spiroimidazolone derivative” (Chugai Seiyaku Kabushiki Kaisha, priority 2009, dated 2015).

Biological target: T1, human PTH1 receptor (Homo sapiens, UniProt Q03431)
T1 sequence (Q03431 27-593): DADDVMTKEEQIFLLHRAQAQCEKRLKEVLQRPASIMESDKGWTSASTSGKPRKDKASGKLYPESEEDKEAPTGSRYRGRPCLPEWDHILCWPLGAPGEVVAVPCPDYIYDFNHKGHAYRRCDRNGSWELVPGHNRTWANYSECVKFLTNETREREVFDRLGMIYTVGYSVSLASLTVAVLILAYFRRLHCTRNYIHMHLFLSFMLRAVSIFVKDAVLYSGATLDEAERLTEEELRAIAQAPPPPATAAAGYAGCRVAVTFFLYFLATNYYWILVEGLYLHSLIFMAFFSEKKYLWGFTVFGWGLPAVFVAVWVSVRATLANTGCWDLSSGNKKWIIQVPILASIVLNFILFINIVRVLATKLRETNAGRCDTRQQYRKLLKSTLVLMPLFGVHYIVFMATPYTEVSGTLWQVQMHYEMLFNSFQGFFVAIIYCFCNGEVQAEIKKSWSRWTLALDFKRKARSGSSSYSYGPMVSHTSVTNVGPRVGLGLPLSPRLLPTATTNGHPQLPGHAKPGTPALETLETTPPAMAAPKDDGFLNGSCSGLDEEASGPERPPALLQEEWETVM
Experiment: In vitro cAMP signal activity in HKRK-B7 cells (LLC-PK1 cells overexpressing the human PTH1 receptor)
Type: cell-based
Settings: HKRK-B7 cells; compound at 1×10^−3 M; cAMP produced as percentage of that produced by hPTH(1-34) at 100 nM

cAMP production activity (%)	Compound
81%	Cc1cc(C(=O)N2CCCC2)ccc1CCS(=O)(=O)N1CCC2(CC1)N=C(c1ccc(F)c(C(F)(F)F)c1)NC2=O [Compound 856, 2-(4-fluoro-3-trifluoromethyl-phenyl)-8-{2-[2-methyl-4-(pyrrolidine-1-carbonyl)-phenyl]-ethanesulfonyl}-1,3,8-triaza-spiro[4.5]dec-1-en-4-one]
89%	Cc1cc(N2C(=O)CC[C@@H]2CO)ccc1CCS(=O)(=O)N1CCC2(CC1)N=C(c1ccc(F)c(C(F)(F)F)c1)NC2=O [Compound 857, 2-(4-fluoro-3-trifluoromethyl-phenyl)-8-{2-[4-((R)-2-hydroxymethyl-5-oxo-pyrrolidin-1-yl)-2-methyl-phenyl]-ethanesulfonyl}-1,3,8-triaza-spiro[4.5]dec-1-en-4-one]
100%	Cc1cc(N2C(=O)CC[C@H]2CO)ccc1CCS(=O)(=O)N1CCC2(CC1)N=C(c1ccc(F)c(C(F)(F)F)c1)NC2=O [Compound 858, 2-(4-fluoro-3-trifluoromethyl-phenyl)-8-{2-[4-((S)-2-hydroxymethyl-5-oxo-pyrrolidin-1-yl)-2-methyl-phenyl]-ethanesulfonyl}-1,3,8-triaza-spiro[4.5]dec-1-en-4-one]
26%	Cc1cc(OC2CCN(C(=O)OC(C)(C)C)CC2)ccc1CCS(=O)(=O)N1CCC2(CC1)N=C(c1cccc(OC(F)(F)F)c1)NC2=O [Compound 859, 4-(3-methyl-4-{2-[4-oxo-2-(3-trifluoromethoxy-phenyl)-1,3,8-triaza-spiro[4.5]dec-1-ene-8-sulfonyl]-ethyl}-phenoxy)-piperidine-1-carboxylic acid tert-butyl ester]
36%	Cc1cc(N2CCC2=O)ccc1CCS(=O)(=O)N1CCC2(CC1)N=C(C1CCCCC1)NC2=O [Compound 861, 2-cyclohexyl-8-{2-[2-methyl-4-(2-oxo-azetidin-1-yl)-phenyl]-ethanesulfonyl}-1,3,8-triaza-spiro[4.5]dec-1-en-4-one]
55%	Cc1cc(N2C(=O)CN(C)C2=O)ccc1CCS(=O)(=O)N1CCC2(CC1)N=C(C1CCC(C)CC1)NC2=O (stereo not drawn) [Compound 862, 1-methyl-3-(3-methyl-4-{2-[2-(4-methyl-cyclohexyl)-4-oxo-1,3,8-triaza-spiro[4.5]dec-1-ene-8-sulfonyl]-ethyl}-phenyl)-imidazolidine-2,4-dione]
67%	Cc1cc(N2C(=O)NC(C)(C)C2=O)ccc1CCS(=O)(=O)N1CCC2(CC1)N=C(C1CCC(C)CC1)NC2=O (stereo not drawn) [Compound 863, 5,5-dimethyl-3-(3-methyl-4-{2-[2-(4-methyl-cyclohexyl)-4-oxo-1,3,8-triaza-spiro[4.5]dec-1-ene-8-sulfonyl]-ethyl}-phenyl)-imidazolidine-2,4-dione]
100%	Cc1cc(N2C(=O)NC(C)(C)C2=O)ccc1CCS(=O)(=O)N1CCC2(CC1)N=C(C1CCC(CCC(F)(F)F)CC1)NC2=O (stereo not drawn) [Compound 864, 5,5-dimethyl-3-[3-methyl-4-(2-{4-oxo-2-[4-(3,3,3-trifluoro-propyl)-cyclohexyl]-1,3,8-triaza-spiro[4.5]dec-1-ene-8-sulfonyl}-ethyl)-phenyl]-imidazolidine-2,4-dione]
8.9%	Cc1cc(N2CCOC2=O)ccc1CCS(=O)(=O)N1CCC2(CC1)N=C(C1CCC(C)CC1)NC2=O (stereo not drawn) [Compound 865, 2-(4-methyl-cyclohexyl)-8-{2-[2-methyl-4-(2-oxo-oxazolidin-3-yl)-phenyl]-ethanesulfonyl}-1,3,8-triaza-spiro[4.5]dec-1-en-4-one]
47%	Cc1cc(N2COCC2=O)ccc1CCS(=O)(=O)N1CCC2(CC1)N=C(C1CCC(C)CC1)NC2=O (stereo not drawn) [Compound 866, 2-(4-methyl-cyclohexyl)-8-{2-[2-methyl-4-(4-oxo-oxazolidin-3-yl)-phenyl]-ethanesulfonyl}-1,3,8-triaza-spiro[4.5]dec-1-en-4-one]
71%	O=C1NC(C2CCC(CCC(F)(F)F)CC2)=NC12CCN(S(=O)(=O)CCc1cccc3c1ccn3C[C@@H](O)CO)CC2 (stereo partly drawn) [Compound 867, 8-{2-[1-((R)-2,3-dihydroxy-propyl)-1H-indol-4-yl]-ethanesulfonyl}-2-[4-(3,3,3-trifluoro-propyl)-cyclohexyl]-1,3,8-triaza-spiro[4.5]dec-1-en-4-one]
77%	Cc1cc(N(C)c2ncc[nH]2)cc(C)c1CCS(=O)(=O)N1CCC2(CC1)N=C(C1CCC(C)CC1)NC2=O (stereo not drawn) [Compound 868, 8-(2-{4-[(1H-imidazol-2-yl)-methyl-amino]-2,6-dimethyl-phenyl}-ethanesulfonyl)-2-(4-methyl-cyclohexyl)-1,3,8-triaza-spiro[4.5]dec-1-en-4-one]
65%	Cc1cc(N2C(=O)NC(C)(C)C2=O)cc(C)c1CCS(=O)(=O)N1CCC2(CC1)N=C(C1CCC(C)CC1)NC2=O (stereo not drawn) [Compound 869, 3-(3,5-dimethyl-4-{2-[2-(4-methyl-cyclohexyl)-4-oxo-1,3,8-triaza-spiro[4.5]dec-1-ene-8-sulfonyl]-ethyl}-phenyl)-5,5-dimethyl-imidazolidine-2,4-dione]
63%	Cc1cc(N2CCNCC2=O)ccc1CCS(=O)(=O)N1CCC2(CC1)N=C(C1CCC(C)CC1)NC2=O (stereo not drawn) [Compound 870, 2-(4-methyl-cyclohexyl)-8-{2-[2-methyl-4-(2-oxo-piperazin-1-yl)-phenyl]-ethanesulfonyl}-1,3,8-triaza-spiro[4.5]dec-1-en-4-one]
109%	O=C1NC(C2CCCCC2)=NC12CCN(S(=O)(=O)CCc1ccc3c(ccn3C[C@H](O)CO)c1)CC2 [Compound 872, 2-cyclohexyl-8-{2-[1-((S)-2,3-dihydroxy-propyl)-1H-indol-5-yl]-ethanesulfonyl}-1,3,8-triaza-spiro[4.5]dec-1-en-4-one]
77%	CC(=O)N(CCO)c1cc(C)c(CCS(=O)(=O)N2CCC3(CC2)N=C(c2cccc(OC(F)(F)F)c2)NC3=O)cc1F [Compound 873, N-(2-fluoro-5-methyl-4-{2-[4-oxo-2-(3-trifluoromethoxy-phenyl)-1,3,8-triaza-spiro[4.5]dec-1-ene-8-sulfonyl]-ethyl}-phenyl)-N-(2-hydroxy-ethyl)-acetamide]
61%	Cc1cc(NS(N)(=O)=O)ccc1CCS(=O)(=O)N1CCC2(CC1)N=C(c1cccc(OC(F)(F)F)c1)NC2=O [Compound 874, N-(3-methyl-4-{2-[4-oxo-2-(3-trifluoromethoxy-phenyl)-1,3,8-triaza-spiro[4.5]dec-1-ene-8-sulfonyl]-ethyl}-phenyl)-sulfamide]
65%	Cc1cc(NS(=O)(=O)NCCCO)ccc1CCS(=O)(=O)N1CCC2(CC1)N=C(c1cccc(OC(F)(F)F)c1)NC2=O [Compound 875, N-(3-hydroxy-propyl)-N′-(3-methyl-4-{2-[4-oxo-2-(3-trifluoromethoxy-phenyl)-1,3,8-triaza-spiro[4.5]dec-1-ene-8-sulfonyl]-ethyl}-phenyl)-sulfamide]
22%	Cc1cc(N(CC#N)C(N)=O)ccc1CCS(=O)(=O)N1CCC2(CC1)N=C(c1cccc(OC(F)(F)F)c1)NC2=O [Compound 876, 1-cyanomethyl-1-(3-methyl-4-{2-[4-oxo-2-(3-trifluoromethoxy-phenyl)-1,3,8-triaza-spiro[4.5]dec-1-ene-8-sulfonyl]-ethyl}-phenyl)-urea]
35%	Cc1cc(N(CC(F)(F)F)C(N)=O)ccc1CCS(=O)(=O)N1CCC2(CC1)N=C(c1cccc(OC(F)(F)F)c1)NC2=O [Compound 877, 1-(3-methyl-4-{2-[4-oxo-2-(3-trifluoromethoxy-phenyl)-1,3,8-triaza-spiro[4.5]dec-1-ene-8-sulfonyl]-ethyl}-phenyl)-1-(2,2,2-trifluoro-ethyl)-urea]
25%	CC[C@H]1CC[C@H](C2=NC3(CCN(S(=O)(=O)CCc4ccc(N5CC(=O)NC5=O)cc4C)CC3)C(=O)N2)CC1 [Compound 878, 1-(4-{2-[2-(4-ethyl-cyclohexyl)-4-oxo-1,3,8-triaza-spiro[4.5]dec-1-ene-8-sulfonyl]-ethyl}-3-methyl-phenyl)-imidazolidine-2,4-dione]
70%	CC[C@H]1CC[C@H](C2=NC3(CCN(S(=O)(=O)CCc4ccc(N5C(=O)NC(=O)C5C)cc4C)CC3)C(=O)N2)CC1 (stereo partly drawn) [Compound 879, 1-(4-{2-[2-(4-ethyl-cyclohexyl)-4-oxo-1,3,8-triaza-spiro[4.5]dec-1-ene-8-sulfonyl]-ethyl}-3-methyl-phenyl)-5-methyl-imidazolidine-2,4-dione]
68%	CCCCC1CCC(C2=NC3(CCN(S(=O)(=O)CCc4ccc(N5C(=O)CNC5=O)cc4C)CC3)C(=O)N2)CC1 (stereo not drawn) [Compound 880, 3-(4-{2-[2-(4-Butyl-cyclohexyl)-4-oxo-1,3,8-triaza-spiro[4.5]dec-1-ene-8-sulfonyl]-ethyl}-3-methyl-phenyl)-imidazolidine-2,4-dione]

Compound	cAMP production activity (%)
O=C1NC(c2cccc(OC(F)(F)F)c2)=NC12CCN(S(=O)(=O)CCc1cc(F)c(OCCC(O)CO)c(F)c1)CC2 (stereo not drawn) [Compound 860, 8-{2-[4-(3,4-dihydroxy-butoxy)-3,5-difluoro-phenyl]-ethanesulfonyl}-2-(3-trifluoromethoxy-phenyl)-1,3,8-triaza-spiro[4.5]dec-1-en-4-one]	50%
